Legend:
[1] = tested on: Mycosphaerella graminicola; experiment: Mycosphaerella graminicola (Septoria tritici) / liquid culture (Septoria blotch); assay type: cell-based; conditions: Zymoseptoria tritici, 96 h, photometrically 4-5 days after application, read-out: control of Mycosphaerella graminicola
Summary of the method: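 Conidia from cryogenic storage mixed into potato dextrose broth, added to test compound in DMSO. Plates incubated at 24° C; growth inhibition read photometrically 4-5 days after application.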

Monographella nivalis = Monographella nivalis (Microdochium nivale) / liquid culture (foot rot cereals); assay type: cell-based; conditions: 96 h, photometrically 4-5 days after application, read-out: control of Monographella nivalis
Summary of the method: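 Microdochium nivale conidia in potato dextrose broth were added to test compound in DMSO and incubated at 24° C. Growth inhibition was measured photometrically 4-5 days after application.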

Alternaria solani = Alternaria solani / tomato / leaf disc (early blight); assay type: in vivo; conditions: foliar, inoculated 2 days after application, vs untreated control
Experimental: Example B1: Alternaria solani/Tomato/Leaf Disc (Early Blight) Tomato leaf disks cv. Baby are placed on agar in multiwell plates (24-well format) and sprayed with the formulated test compound diluted in water. The leaf disks are inoculated with a spore suspension of the fungus 2 days after application. The inoculated leaf disks are incubated at 23° C./21° C. (day/night) and 80% relative humidity under a light regime of 12 h/12 h (light/dark) in a climate cabinet and the activity of a compound is assessed as percent disease control compared to untreated when an appropriate level of disease damage appears on untreated check disk leaf disks (5-7 days after application).

Phaeosphaeria nodorum = Phaeosphaeria nodorum (Septoria nodorum) / wheat / leaf disc preventative (glume blotch); assay type: in vivo; conditions: Parastagonospora nodorum, foliar, inoculated 2 days after application
Experimental: Example B9: Phaeosphaeria nodorum (Septoria nodorum)/Wheat/Leaf Disc Preventative (Glume Blotch) Wheat leaf segments cv. Kanzler are placed on agar in a multiwell plate (24-well format) and sprayed with the formulated test compound diluted in water. The leaf disks are inoculated with a spore suspension of the fungus 2 days after application. The inoculated test leaf disks are incubated at 20° C. and 75% relative humidity under a light regime of 12 h light/12 h darkness in a climate cabinet and the activity of a compound is assessed as percent disease control compared to untreated when an appropriate level of disease damage appears in untreated check leaf disks (5-7 days after application).

Mycosphaerella arachidis = Mycosphaerella arachidis (Cercospora arachidicola) / liquid culture (early leaf spot); assay type: cell-based; conditions: 96 h, photometrically 4-5 days after application, read-out: control of Mycosphaerella arachidis
Summary of the method: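 Cryostored M. arachidis conidia in potato dextrose broth were added to compound applied as DMSO solution. Incubated at 24 °C; growth inhibition measured photometrically 4-5 days after application.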

Botryotinia fuckeliana = Botryotinia fuckeliana (Botrytis cinerea) / liquid culture (gray mould); assay type: cell-based; conditions: 72 h, growth inhibition photometrically 3-4 days after application, read-out: control of Botryotinia fuckeliana
Experimental: Example B2: Botryotinia Fuckeliana (Botrytis cinerea)/Liquid Culture (Gray Mould) Conidia of the fungus from cryogenic storage are directly mixed into a nutrient broth (Vogels broth). After placing a DMSO solution of test compound into a microtiter plate (96-well format), the nutrient broth containing the fungal spores is added. The test plates are incubated at 24° C. and the inhibition of growth is determined photometrically 3-4 days after application.

Glomerella lagenarium = Glomerella lagenarium (Colletotrichum lagenarium) / liquid culture (anthracnose); assay type: cell-based; conditions: Colletotrichum orbiculare, 72 h, photometrically 3-4 days after application, read-out: control of Glomerella lagenarium
Summary of the method: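 Conidia in potato dextrose broth added to test compound delivered as DMSO solution in microtiter plates; incubation at 24° C. Growth inhibition read photometrically 3-4 days after application.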

CON=C(C)c1c(C2CN(C(=O)c3cc(-c4ccc(F)cc4F)on3)Cc3ccccc32)cnn1C (centres unmarked) [Compound P-13, [5-(2,4-difluorophenyl)isoxazol-3-yl]-[4-[5-(N-methoxy-C-methyl-carbonimidoyl)-1-methyl-pyrazol-4-yl]-3,4-dihydro-1H-isoquinolin-2-yl]methanone]
≥ 80%: inhibition of growth at 20 ppm [1] | inhibition of growth at 20 ppm (Monographella nivalis) | pest or weed control at 200 ppm (Alternaria solani) | pest or weed control at 200 ppm (Phaeosphaeria nodorum)

Cn1cc(C2CN(C(=O)c3cc(-c4ccccc4F)no3)Cc3ccccc32)cn1 (centres unmarked) [Compound P-154, [3-(2-fluorophenyl)isoxazol-5-yl]-[4-(1-methylpyrazol-4-yl)-3,4-dihydro-1H-isoquinolin-2-yl]methanone]
≥ 80%: inhibition of growth at 20 ppm (Mycosphaerella arachidis) | inhibition of growth at 20 ppm [1] | inhibition of growth at 20 ppm (Monographella nivalis) | inhibition of growth at 20 ppm (Botryotinia fuckeliana) | inhibition of growth at 20 ppm (Glomerella lagenarium)

Cn1cc(C2CN(C(=O)c3cc(-c4ccccc4)no3)Cc3ccccc32)cn1 (centres unmarked) [Compound P-158, [4-(1-methylpyrazol-4-yl)-3,4-dihydro-1H-isoquinolin-2-yl]-(3-phenylisoxazol-5-yl)methanone]
≥ 80%: inhibition of growth at 20 ppm (Mycosphaerella arachidis) | inhibition of growth at 20 ppm [1] | inhibition of growth at 20 ppm (Monographella nivalis) | inhibition of growth at 20 ppm (Botryotinia fuckeliana) | pest or weed control at 200 ppm (Alternaria solani) | inhibition of growth at 20 ppm (Glomerella lagenarium)

Cn1cc(C2CN(C(=O)c3cc(-c4ccc(F)cc4F)on3)Cc3ccc(C#N)cc32)cn1 (centres unmarked) [Compound P-62, 2-[5-(2,4-difluorophenyl)isoxazole-3-carbonyl]-4-(1-methylpyrazol-4-yl)-3,4-dihydro-1H-isoquinoline-6-carbonitrile]
≥ 80%: inhibition of growth at 20 ppm [1] | inhibition of growth at 20 ppm (Monographella nivalis) | inhibition of growth at 20 ppm (Glomerella lagenarium) | pest or weed control at 200 ppm (Phaeosphaeria nodorum)

COc1ccc2c(c1)C(c1cnn(C)c1)CN(C(=O)c1cc(-c3ccc(F)cc3F)on1)C2C (centres unmarked) [Compound P-47, [5-(2,4-difluorophenyl)isoxazol-3-yl]-[6-methoxy-1-methyl-4-(1-methylpyrazol-4-yl)-3,4-dihydro-1H-isoquinolin-2-yl]methanone]
≥ 80%: inhibition of growth at 20 ppm (Mycosphaerella arachidis) | inhibition of growth at 20 ppm [1] | inhibition of growth at 20 ppm (Monographella nivalis) | inhibition of growth at 20 ppm (Botryotinia fuckeliana) | inhibition of growth at 20 ppm (Glomerella lagenarium)

COc1cc(F)ccc1-c1cc(C(=O)N2Cc3ccccc3C(c3cnn(C)c3C)C2)no1 (centres unmarked) [Compound P-46, [4-(1,5-dimethylpyrazol-4-yl)-3,4-dihydro-1H-isoquinolin-2-yl]-[5-(4-fluoro-2-methoxy-phenyl)isoxazol-3-yl]methanone]
≥ 80%: inhibition of growth at 20 ppm (Mycosphaerella arachidis) | inhibition of growth at 20 ppm [1] | inhibition of growth at 20 ppm (Monographella nivalis) | pest or weed control at 200 ppm (Alternaria solani) | pest or weed control at 200 ppm (Phaeosphaeria nodorum)

Cn1cc([C@]2(C)CN(C(=O)c3cc(-c4ccc(F)cc4F)on3)Cc3ccccc32)cn1 (single isomer, unassigned) [Compound P-49]
≥ 80%: inhibition of growth at 20 ppm [1] | inhibition of growth at 20 ppm (Monographella nivalis) | inhibition of growth at 20 ppm (Botryotinia fuckeliana) | inhibition of growth at 20 ppm (Glomerella lagenarium) | pest or weed control at 200 ppm (Phaeosphaeria nodorum)

Cn1cc(C2CN(C(=O)c3nc(-c4ccccc4)no3)Cc3ccccc32)cn1 (centres unmarked) [Compound P-152, [4-(1-methylpyrazol-4-yl)-3,4-dihydro-1H-isoquinolin-2-yl]-(3-phenyl-1,2,4-oxadiazol-5-yl)methanone]
≥ 80%: inhibition of growth at 20 ppm (Mycosphaerella arachidis) | inhibition of growth at 20 ppm [1] | inhibition of growth at 20 ppm (Monographella nivalis) | inhibition of growth at 20 ppm (Botryotinia fuckeliana) | inhibition of growth at 20 ppm (Glomerella lagenarium)

COc1ccc2c(c1)C(C)(c1cnn(C)c1)CN(C(=O)c1cc(-c3ccc(F)cc3F)on1)C2C (centres unmarked) [Compound P-40, [5-(2,4-difluorophenyl)isoxazol-3-yl]-[6-methoxy-1,4-dimethyl-4-(1-methylpyrazol-4-yl)-1,3-dihydroisoquinolin-2-yl]methanone]
≥ 80%: inhibition of growth at 20 ppm (Mycosphaerella arachidis) | inhibition of growth at 20 ppm [1] | inhibition of growth at 20 ppm (Monographella nivalis) | pest or weed control at 200 ppm (Phaeosphaeria nodorum)

Cc1c(C2(C)CN(C(=O)c3cc(-c4ccc(F)cc4F)on3)C(C)c3ccccc32)cnn1C (centres unmarked) [Compound P-16, [5-(2,4-difluorophenyl)isoxazol-3-yl]-[4-(1,5-dimethylpyrazol-4-yl)-1,4-dimethyl-1,3-dihydroisoquinolin-2-yl]methanone]
≥ 80%: inhibition of growth at 20 ppm (Mycosphaerella arachidis) | inhibition of growth at 20 ppm [1] | inhibition of growth at 20 ppm (Monographella nivalis) | inhibition of growth at 20 ppm (Botryotinia fuckeliana) | inhibition of growth at 20 ppm (Glomerella lagenarium)

Cn1cc([C@@]2(C)CN(C(=O)c3nnc(-c4ccc(F)cc4F)s3)Cc3ccccc32)cn1 [Compound P-209, [5-(2,4-difluorophenyl)-1,3,4-thiadiazol-2-yl]-[(4S)-4-methyl-4-(1-methylpyrazol-4-yl)-1,3-dihydroisoquinolin-2-yl]methanone]
≥ 80%: inhibition of growth at 20 ppm (Mycosphaerella arachidis) | inhibition of growth at 20 ppm [1] | inhibition of growth at 20 ppm (Monographella nivalis) | inhibition of growth at 20 ppm (Botryotinia fuckeliana) | inhibition of growth at 20 ppm (Glomerella lagenarium)

Cn1cc(C2CN(C(=O)c3cc(-c4ccc(F)cc4)on3)Cc3ccccc32)cn1 (centres unmarked) [Compound P-192, [5-(4-fluorophenyl)isoxazol-3-yl]-[4-(1-methylpyrazol-4-yl)-3,4-dihydro-1H-isoquinolin-2-yl]methanone]
≥ 80%: inhibition of growth at 20 ppm [1] | inhibition of growth at 20 ppm (Botryotinia fuckeliana) | inhibition of growth at 20 ppm (Glomerella lagenarium)

Cn1cc(C2CN(C(=O)c3nnc(-c4ccc(F)cc4F)s3)Cc3ccccc32)cn1 (centres unmarked) [Compound P-1, [5-(2,4-difluorophenyl)-1,3,4-thiadiazol-2-yl]-[4-(1-methylpyrazol-4-yl)-3,4-dihydro-1H-isoquinolin-2-yl]methanone]
≥ 80%: inhibition of growth at 20 ppm (Mycosphaerella arachidis) | inhibition of growth at 20 ppm [1] | inhibition of growth at 20 ppm (Monographella nivalis) | inhibition of growth at 20 ppm (Botryotinia fuckeliana) | inhibition of growth at 20 ppm (Glomerella lagenarium)

CON=C(C)C1c2ccccc2C(c2cnn(C)c2)CN1C(=O)c1cc(-c2ccc(F)cc2F)on1 (centres unmarked) [Compound P-10, [5-(2,4-difluorophenyl)isoxazol-3-yl]-[1-(N-methoxy-C-methyl-carbonimidoyl)-4-(1-methylpyrazol-4-yl)-3,4-dihydro-1H-isoquinolin-2-yl]methanone]
≥ 80%: inhibition of growth at 20 ppm [1] | pest or weed control at 200 ppm (Alternaria solani) | inhibition of growth at 20 ppm (Glomerella lagenarium) | pest or weed control at 200 ppm (Phaeosphaeria nodorum)

CCC1(c2cnn(C)c2)CN(C(=O)c2cc(-c3ccc(F)cc3F)on2)Cc2ccccc21 (centres unmarked) [Compound P-221, [5-(2,4-difluorophenyl)isoxazol-3-yl]-[4-ethyl-4-(1-methylpyrazol-4-yl)-1,3-dihydroisoquinolin-2-yl]methanone]
≥ 80%: inhibition of growth at 20 ppm (Mycosphaerella arachidis) | inhibition of growth at 20 ppm [1] | pest or weed control at 200 ppm (Phaeosphaeria nodorum)

Cc1ccc(-c2cc(C(=O)N3Cc4ccccc4C(c4cnn(C)c4)C3)no2)cc1 (centres unmarked) [Compound P-204, [4-(1-methylpyrazol-4-yl)-3,4-dihydro-1H-isoquinolin-2-yl]-[5-(p-tolyl)isoxazol-3-yl]methanone]
≥ 80%: inhibition of growth at 20 ppm [1] | pest or weed control at 200 ppm (Phaeosphaeria nodorum)

Cn1cc(C2CN(C(=O)c3nnc(-c4ccccc4)s3)Cc3ccccc32)cn1 (centres unmarked) [Compound P-162, [4-(1-methylpyrazol-4-yl)-3,4-dihydro-1H-isoquinolin-2-yl]-(5-phenyl-1,3,4-thiadiazol-2-yl)methanone]
≥ 80%: inhibition of growth at 20 ppm (Mycosphaerella arachidis) | inhibition of growth at 20 ppm [1] | inhibition of growth at 20 ppm (Monographella nivalis) | inhibition of growth at 20 ppm (Botryotinia fuckeliana) | inhibition of growth at 20 ppm (Glomerella lagenarium)

CC1c2ccc(Br)cc2C(C)(c2cnn(C)c2)CN1C(=O)c1cc(-c2ccc(F)cc2F)on1 (centres unmarked) [Compound P-215, [6-bromo-1,4-dimethyl-4-(1-methylpyrazol-4-yl)-1,3-dihydroisoquinolin-2-yl]-[5-(2,4-difluorophenyl)isoxazol-3-yl]methanone]
≥ 80%: inhibition of growth at 20 ppm (Mycosphaerella arachidis) | inhibition of growth at 20 ppm [1] | inhibition of growth at 20 ppm (Monographella nivalis) | inhibition of growth at 20 ppm (Botryotinia fuckeliana) | inhibition of growth at 20 ppm (Glomerella lagenarium)

— patent US20250325534A1, “MICROBIOCIDAL TETRAHYDROISOQUINOLINE DERIVATIVES” (SYNGENTA CROP PROTECTION AG, priority 2021, published 2025)
